Source: patent US20140221499A1, “NOVEL RODENT CONTROL AGENTS AND USES THEREOF” (priority 2011, published 2014)

Assays:
Assay type in all cases: cell-based
[1] = system: olfactory TAARs; assay: TAAR reporter gene assay, panel of mouse and rat TAARs in HEK293 cells; conditions: for TAAR activation: mouse and rat TAARs
Text: (§1) Here, we set out to identify agonists for additional mouse and rat TAARs. We examined odor response profiles using a previously established reporter gene assay based on cAMP-dependent odor transduction in olfactory sensory neurons (40, 42). Briefly, TAAR plasmids were transfected into HEK293 cells along with a cAMP-dependent reporter gene encoding secreted alkaline phosphatase (CRE-SEAP). TAARs were expressed both in unmodified form and as fusion proteins with an N-terminal sequence of bovine rhodopsin (‘Rho tag’) that promotes cell surface expression of some chemosensory receptors (35). Transfected cells were incubated with test chemicals, and phosphatase activity was quantified with a fluorescent substrate as a reporter for TAAR activation. In initial experiments, we tested 38 different odorant mixtures containing 244 structurally diverse test chemicals (2-5 μM) for the ability to activate each mTAAR. Subsequently, we tested 73 amines that included known mTAAR agonists and related chemicals for the ability to activate each rTAAR.
TAAR functional assays. Full Taar coding regions were cloned into pcDNA3.1-(Invitrogen) with or without a 5′ DNA extension of 69 bp encoding the first 20 amino acids of bovine rhodopsin followed by a cloning linker ([…]). Point mutations were introduced in mTAAR7e and mTAAR7f by overlap extension PCR. Functional assays were performed as described (40, 42). Fluorescence was measured on an EnVision plate reader (Perkin Elmer) and SEAP activity graphed as relative fluorescence of a phosphatase substrate.

[2] = target: T1, mTAAR7e (Mus musculus, UniProt Q5QD09); assay: TAAR reporter gene assay, mTAAR7e
T1 construct: Full Taar coding regions were cloned into pcDNA3.1-(Invitrogen); Rho tag (first 20 aa of bovine rhodopsin + linker); expressed in transfected cells; host or cells: HEK293
T1 sequence (Q5QD09 1-358): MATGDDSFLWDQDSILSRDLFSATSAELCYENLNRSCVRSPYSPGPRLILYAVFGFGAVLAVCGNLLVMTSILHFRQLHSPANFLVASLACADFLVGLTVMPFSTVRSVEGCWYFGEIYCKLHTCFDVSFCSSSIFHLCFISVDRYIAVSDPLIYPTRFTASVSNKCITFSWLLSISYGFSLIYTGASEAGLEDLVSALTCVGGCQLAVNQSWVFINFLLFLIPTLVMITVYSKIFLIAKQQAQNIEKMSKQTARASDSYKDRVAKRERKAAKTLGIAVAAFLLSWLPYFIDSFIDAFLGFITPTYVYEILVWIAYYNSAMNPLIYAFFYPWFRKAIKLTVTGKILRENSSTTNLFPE
Text: as §1
(§2) TAAR functional assays. […] Fluorescence was measured on an EnVision plate reader (Perkin Elmer) and SEAP activity graphed as relative fluorescence of a phosphatase substrate.

[3] = target: T2, mTAAR7b (Mus musculus, UniProt Q5QD11); assay: TAAR reporter gene assay, mTAAR7b; parameters: Full Taar coding regions were cloned into pcDNA3.1-(Invitrogen); Rho tag (first 20 aa of bovine rhodopsin + linker); expressed in transfected cells; host or cells: HEK293
T2 sequence (Q5QD11 1-358): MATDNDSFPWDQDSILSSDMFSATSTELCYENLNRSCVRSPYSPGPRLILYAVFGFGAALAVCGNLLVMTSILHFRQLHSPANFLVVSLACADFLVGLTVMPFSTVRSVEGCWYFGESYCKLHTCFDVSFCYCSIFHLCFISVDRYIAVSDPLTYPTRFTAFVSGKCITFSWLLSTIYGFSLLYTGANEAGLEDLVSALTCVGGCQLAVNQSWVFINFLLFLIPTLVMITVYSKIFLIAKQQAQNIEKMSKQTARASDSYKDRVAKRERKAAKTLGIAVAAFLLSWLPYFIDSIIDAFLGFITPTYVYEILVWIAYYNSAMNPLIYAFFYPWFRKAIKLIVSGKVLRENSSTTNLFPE
Text: as §1, §2

[4] = target: T3, rTAAR7d (Rattus norvegicus, UniProt Q923X5); assay: TAAR reporter gene assay, rTAAR7d; parameters: Full Taar coding regions were cloned into pcDNA3.1-(Invitrogen); Rho tag (first 20 aa of bovine rhodopsin + linker); expressed in transfected cells; host or cells: HEK293
T3 sequence (Q923X5 1-358): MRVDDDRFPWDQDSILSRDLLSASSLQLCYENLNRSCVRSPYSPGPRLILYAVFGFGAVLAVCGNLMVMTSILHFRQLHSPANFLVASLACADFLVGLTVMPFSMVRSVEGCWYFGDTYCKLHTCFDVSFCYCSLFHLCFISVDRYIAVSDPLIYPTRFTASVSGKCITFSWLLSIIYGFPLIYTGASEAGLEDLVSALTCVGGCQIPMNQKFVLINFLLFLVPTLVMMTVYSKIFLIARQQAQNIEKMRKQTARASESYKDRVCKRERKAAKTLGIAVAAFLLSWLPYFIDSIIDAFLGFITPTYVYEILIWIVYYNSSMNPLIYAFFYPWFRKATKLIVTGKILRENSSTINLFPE
Text: as §1, §2

Compound | activation of other olfactory TAARs with identified ligands ([1]; 10 μM (FIG. 2D)) | TAAR activation [1] | mTAAR7e activation [2] | mTAAR7b activation [3] | rTAAR7d activation [4]
NCCc1ccccc1 [2-phenylethylamine] | did not similarly activate | – | – | – | –
CN(C)CCc1ccccc1 [ligand 6, N,N-dimethyl-2-phenylethylamine] | – | activated different TAAR7 paralogs | activated | not | not
CN(C)C1CCCCC1 [ligand 10, N,N-dimethylcyclohexylamine] | – | activated different TAAR7 paralogs | not | activated | activated
